The results in this text go back to patent publication US8058243B2, “Method for treating a brain cancer with ifenprodil” (HSC Research and Development Limited Partnership, priority 2006, dated 2011).

The subject of this test is murine neural precursor cells (neurosphere cultures). The experiment in a line: HTS of LOPAC library against secondary neurosphere cultures, MTT proliferation assay at 3 μM, day 7 (z score, P value). Format: cell-based, mouse.
[1] abbreviates: yes = significantly inhibited neurosphere proliferation (P<0.01) in the primary screen.
[2] abbreviates: LOPAC screen, neurosphere MTT proliferation, 3 μM, day 7.
Where [3] appears, read: yes/no: significantly inhibited neurosphere proliferation (P<0.01) in primary screen.
Setting [4] is: LOPAC library screen at 3 μM, secondary neurosphere cultures, MTT.
Setting [5] is: LOPAC primary screen, neurosphere MTT proliferation, 3 μM, day 7.
Setting [6] is: yes/no: significantly inhibited neurosphere proliferation (P<0.01) in the primary screen.
The mark [7] stands for this setting: yes/no: significantly inhibited neurosphere proliferation in primary screen.
[8] abbreviates: LOPAC library screen, 3 μM, MTT, secondary neurosphere cultures, day 7.
Setting [9] is: primary LOPAC screen, 3 μM, MTT, neurosphere proliferation.
The mark [10] stands for this setting: yes/no: significantly inhibited neurosphere proliferation in the primary screen.
The mark [11] stands for this setting: LOPAC library screen, 3 μM, MTT, neurosphere cultures.

Structures can show the parent of a compound that is named as a salt. Where two headings read alike, the source gives them in different places.

For `CC#C[C@]1(O)CC[C@H]2[C@@H]3CCC4=CC(=O)CCC4=C3[C@@H](c3ccc(N(C)C)cc3)C[C@@]21C` [Mifepristone], for the setting “168 h, 3 µM”, the “Z Score” value was −1.97 and the Z score is reported as −1.970. Further, the Activity entry under setting [1] is reported as “no”.

With `N[C@H](C(=O)O)c1cc(O)cc(O)c1` [(S)-3,5-Dihydroxyphenyglycine], under setting [2], the Z score was −0.336. For the same compound, the Activity entry under setting [3] was “no”.

On to `O=C(Cc1ccc(Cl)c(Cl)c1)OCCN1CCCC1` [AC 915 oxalate], for which the “Z Score” value under setting [4] is listed as −0.8903. For the same compound, the Z score under setting [5] was −0.890. For the same compound, under setting [6], the Activity result is “no”.

With `CC(C)NCC(O)COc1cccc2[nH]ccc12` (stereo not drawn) [S(−)-Pindolol], the Z score is, setting by setting: under setting [5], −1.122; under setting [2], −0.965. Also, the Activity result runs as follows: under setting [3], “no”; under setting [7], “no”.

Consider `O=P1(N(CCCl)CCCl)NCCCO1` (stereo not shown) [Cyclophosphamide monohydrate], for which the Activity result is recorded as “no”, the “Z Score” value is reported as −0.9758 and the Z score was −0.976.

As for `Cc1nc(N=Nc2ccc(S(=O)(=O)O)cc2S(=O)(=O)O)c(COP(=O)(O)O)c(C=O)c1O` [PPADS], the “Z Score” value is on record as 1.106. Moreover, the Z score under setting [5] worked out at 1.106. Besides, under setting [7], the Activity entry is recorded as “no”.

Turning to `N#CC(C#N)=Cc1ccc(O)c(O)c1` [Tyrphostin 23], the “Z Score” value is reported as −0.8396. In addition, under setting [5], the Z score is reported as −0.840. For the same compound, the Activity entry under setting [7] is listed as “no”.

`CCc1ccccc1OC[C@@H](O)CN[C@H]1CCCc2ccccc21.O=C(O)C(=O)O` [SR 59230A oxalate]: the “Z Score” value under setting [8] is given as −1.222. Moreover, the Z score under setting [5] is listed as −1.222. The Activity result under setting [7] is “no”.

In the case of `O=C(O)CN(CCN(CC(=O)O)CC(=O)O)CCN(CC(=O)O)CC(=O)O` [Diethylenetriaminepentaacetic acid], under setting [4], the “Z Score” value was −0.4576. This compound yielded a Z score under setting [5] of −0.458. In addition, the Activity result under setting [6] is “no”.

Consider `NC(CO)(CO)CO.O=C(c1ccccc1)c1ccc2n1CCC2C(=O)O` (stereo not shown) [Ketorolac tris salt], for which the “Z Score” value under setting [4] was −0.7256. Moreover, the Z score under setting [5] was −0.726. The Activity result under setting [3] was “no”.

For the compound `Cl.NCCc1ccc(O)c(O)c1` [Dopamine hydrochloride], the Activity entry is recorded as “no”, the “Z Score” value was found to be 1.352 and the Z score is on record as 1.352.

As for `NCC1(CC(=O)O)CCCCC1` [Gabapentin], the “Z Score” value amounted to 0.8838. In addition, the Z score under setting [5] turned out to be 0.884. Further, under setting [3], the Activity entry is on record as “no”.

For `CNCCc1ccc(O)c(O)c1.Cl` [N-Methyldopamine hydrochloride], the “Z Score” value under setting [8] is on record as −1.219. Under setting [2], this compound returned a Z score of −1.219. In addition, the Activity entry under setting [3] is given as “no”.

`CN(C)CCCN1c2ccccc2Sc2ccc(C(F)(F)F)cc21` [Triflupromazine hydrochloride]: under setting [8], the “Z Score” value is −1.82. Further, the Z score under setting [5] is −1.820. Under setting [6], the Activity result is “no”.

As for `CCC1(c2ccc(N)cc2)CCC(=O)NC1=O` (racemic) [(±)-p-Aminoglutethimide], the Activity result is listed as “no”. This compound also gave a Z score under setting [9] of −0.444.

With `OCc1ccc(-c2nn(Cc3ccccc3)c3ccccc23)o1` [YC-1], the “Z Score” value is given as 0.4335. In addition, the Z score under setting [9] is given as 0.433. In addition, under setting [10], the Activity entry is “no”.

With `Cc1ccc(OCC(O)C(C)NC(C)C)c2c1CCC2.Cl` (stereo not shown) [ICI 118,551 hydrochloride], the “Z Score” value is 1.101. This compound had a Z score under setting [5] of 1.101. Moreover, under setting [3], the Activity entry is given as “no”.

As for `Oc1cc2c(cc1O)CN(C(=S)NCCc1ccc(Cl)cc1)CCC2` [Capsazepine], under setting [11], the “Z Score” value is 1.26. The compound also registered a Z score under setting [2] of 1.260. The Activity entry under setting [3] was “no”.

As to `CN(C)CCCCSC(=N)N.Cl.Cl` [SKF 91488 dihydrochloride], the “Z Score” value is reported as −0.766. This compound came in with a Z score under setting [5] of −0.766. Also, the Activity result under setting [7] is on record as “no”.

For `COc1ccc(C2CNC(=O)C2)cc1OC1CCCC1` (stereo not shown) [Rolipram], the “Z Score” value under setting [8] is −2.091. Also, the Z score under setting [5] is given as −2.091. For the same compound, the Activity result under setting [7] is reported as “no”.

For the compound (−)-Perillic acid, the “Z Score” value was −1.321.

Turning to `CC(CN(C)C)CN1c2ccccc2CCc2ccccc21` (stereo not shown) [Trimipramine maleate], the “Z Score” value under setting [11] worked out at 0.5677. Under setting [9], this compound yielded a Z score of 0.568. Further, the Activity result under setting [10] is on record as “no”.

Regarding `O=c1[nH]c2ccccc2n1CCCN1CCC(n2c(=O)[nH]c3cc(Cl)ccc32)CC1` [Domperidone], the Activity result was “no”. Moreover, the “Z Score” value under setting [8] is −1.525. Moreover, the Z score under setting [5] is recorded as −1.525.

As to `CC(N)(Cc1ccc(O)c(O)c1)C(=O)O` (racemic) [(±)-3-(3,4-dihydroxyphenyl)-2-methyl-DL-alanine], the Z score (168 h, 3 µM) was −1.894. For the same compound, under setting [1], the Activity result is on record as “no”.

In the case of `CN1C[C@@H](NS(=O)(=O)N(C)C)C[C@@H]2c3cccc4c3c(cn4C)C[C@H]21` [Mesulergine hydrochloride], under setting [8], the “Z Score” value is given as −2.16. For the same compound, the Z score under setting [5] is −2.160. For the same compound, under setting [6], the Activity result is “no”.

On to `CCCCCCCCCCCCCCCCCCNC(=O)OCC(COP(=O)([O-])OCC[n+]1ccsc1)OC` (stereo not shown) [CV-3988], for which the “Z Score” value is −0.4371. The Z score under setting [5] is −0.437. Further, the Activity entry under setting [7] was “no”.

As for `N[C@@H](Cn1oc(=O)[nH]c1=O)C(=O)O` [(+)-Quisqualic acid], the “Z Score” value amounted to 0.4361. The Z score under setting [5] came out at 0.436. For the same compound, the Activity result under setting [7] was “no”.

On to `COc1cc2c(cc1O)CC[C@@H]1[C@@H]2CC[C@]2(C)[C@@H](O)CC[C@@H]12` [2-methoxyestradiol], for which the “Z Score” value under setting [4] is on record as −0.9833. This compound gave a Z score under setting [5] of −0.983. Further, the Activity entry under setting [1] is “no”.

Regarding `CCCN1CCC[C@H](c2cccc(O)c2)C1.Cl` [R(+)-3PPP hydrochloride], the “Z Score” value is reported as −2.213. This compound came in with a Z score under setting [5] of −2.213. Moreover, the Activity result under setting [7] is given as “no”.

Regarding `O=c1c2ccccc2nc2n1CCc1c-2[nH]c2ccccc12` [Rutaecarpine], under “168 h, 3 µM”, the “Z Score” value stood at 0.6857 and the Z score was determined as 0.686.

Under setting [5], `Cl.Cl.Cn1cnc(CCN)c1` [1-Methylhistamine dihydrochloride] registered a Z score of 0.307. For the same compound, the Activity result under setting [1] is “no”.

Turning to `CC(C)N(CCC(=O)c1ccc2ccccc2c1)Cc1ccccc1` [ZM 39923 hydrochloride], the “Z Score” value under setting [11] is on record as 0.7457. This compound registered a Z score under setting [5] of 0.746. Moreover, the Activity entry under setting [1] was “no”.

Take `CN1Cc2c(N)cccc2C(c2ccccc2)C1` (stereo not shown) [Nomifensine maleate]: the “Z Score” value under setting [11] was determined as 0.6693. Under setting [5], this compound showed a Z score of 0.669. Under setting [1], the Activity result is “no”.

Take `CC(C)N(CCC(C(N)=O)(c1ccccc1)c1ccccn1)C(C)C` (stereo not shown) [Disopyramide]: under setting [8], the “Z Score” value is given as −4.179. Further, under setting [5], the Z score is reported as −4.179. Besides, under setting [6], the Activity result is listed as “yes”.

For the compound `N.S=C(S)N1CCCC1` [Ammonium pyrrolidinedithiocarbamate], the Activity entry is listed as “no”. Further, under setting [4], the “Z Score” value was −0.4168. Under setting [5], this compound yielded a Z score of −0.417.

With `Cc1ccccc1N1C(=O)c2cc(S(N)(=O)=O)c(Cl)cc2NC1C` (stereo not shown) [Metolazone], the “Z Score” value under setting [8] is on record as −8.113. Further, the Z score under setting [5] is −8.113. Further, under setting [1], the Activity result is reported as “yes”.

Regarding `CC1=C(C)C(=O)C(CCCCC#CCCCC#CCO)=C(C)C1=O` [AA-861], the “Z Score” value (LOPAC library screen at 3 μM, MTT, secondary neurosphere cultures, screened in singlets) is given as 1.517. Further, under setting [9], the Z score turned out to be 1.517.

As to `CSc1ccc(C(=O)c2[nH]c(=O)[nH]c2C)cc1` [Enoximone], the “Z Score” value under setting [4] is listed as −0.6237. This compound also had a Z score under setting [2] of −0.624. Moreover, the Activity entry under setting [3] is listed as “no”.

As to NSC 95397, the “Z Score” value is −1.098. The Z score under setting [5] is recorded as −1.098. Moreover, under setting [6], the Activity entry is “no”.

With `NS(=O)(=O)Cc1noc2ccccc12` [Zonisamide sodium], under setting [4], the “Z Score” value is −0.9169. Further, the Z score under setting [9] is on record as −0.917. In addition, the Activity result under setting [10] is “no”.

On to `COc1cc2nc(N3CCN(C(=O)C4CCCO4)CC3)nc(N)c2cc1OC` (stereo not shown) [Terazosin hydrochloride], for which the Activity result is reported as “no”. In addition, under setting [11], the “Z Score” value is listed as −0.05722. This compound registered a Z score under setting [9] of −0.057.

With `Cc1cc(NC(=O)Nc2ccc3c(ccn3C)c2)sn1` [SB 204741], the “Z Score” value was −2.299. Under setting [2], this compound yielded a Z score of −2.299. The Activity result under setting [3] is “no”.

As for `O=c1c(O)c(-c2cc(O)c(O)c(O)c2)oc2cc(O)cc(O)c12` [Myricetin], the “Z Score” value is recorded as −0.9113. The compound also returned a Z score under setting [5] of −0.911. For the same compound, under setting [1], the Activity entry was “no”.

`C[C@]12C=CC(=O)C=C1CC[C@H]1[C@@H]3C[C@@H](O)[C@](O)(C(=O)CO)[C@@]3(C)C[C@H](O)[C@@]12F` [Triamcinolone]: the Activity entry is “no”. In addition, under setting [4], the “Z Score” value is −0.184. Under setting [5], the Z score is reported as −0.184.

On to `CC(C)OC(=O)C(C)(C)Oc1ccc(C(=O)c2ccc(Cl)cc2)cc1` [Fenofibrate], for which the “Z Score” value under setting [8] was −2.116. In addition, the Z score under setting [5] was −2.116.

Consider `COc1ccc2c(c1)[C@]13CCCC[C@@H]1[C@H](C2)N(C)CC3`, for which the “Z Score” value is reported as −0.7932. Under setting [5], the Z score is on record as −0.793. Further, the Activity result under setting [6] is listed as “no”.
